The compounds below were run against T1, GPR40 of human origin (Homo sapiens, UniProt O14842) (assay: Agonist action on GPR40 of human origin (intracellular Ca2+ change)). Settings: CHO cell strain stably expressing GPR40 of human origin; change in Ca2+ concentration, fluorescent calcium indicator.
T1 construct: expressed in transfected cells
Assay type: cell-based
Procedure, shortened: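 CHO cells stably expressing human GPR40, cultured overnight, then loaded 1 h with Calcium 4 dye plus probenecid in HEPES-buffered HBSS. Compound added in 20 mM HEPES-HBSS; intracellular Ca2+ change read by fluorescence, EC50 from dose-response of fluorescence change.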

T1 sequence (O14842 whole entry): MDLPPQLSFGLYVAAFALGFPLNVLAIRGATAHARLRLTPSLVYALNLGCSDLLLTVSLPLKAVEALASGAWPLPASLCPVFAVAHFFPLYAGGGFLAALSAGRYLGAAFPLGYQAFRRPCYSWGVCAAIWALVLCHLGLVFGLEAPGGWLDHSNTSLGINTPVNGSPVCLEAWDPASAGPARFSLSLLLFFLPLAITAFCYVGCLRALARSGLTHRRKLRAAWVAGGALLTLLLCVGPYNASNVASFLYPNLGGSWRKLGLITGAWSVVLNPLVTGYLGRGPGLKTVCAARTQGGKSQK

Q: COc1ccc(Oc2cccc3c2CC[C@H]3Oc2ccc(-c3cc(O)n[s+]3[O-])cc2)cn1 (stereo partly drawn) [Example 100, 3-hydroxy-5-(4-(((R)-4-((6-methoxypyridin-3-yl)oxy)-2,3-dihydro-1H-inden-1-yl)oxy)phenyl)isothiazole 1-oxide] was tested. Which EC50 did it give?
A: Its EC50 is < 300 nM.

Q: How did the EC50 turn out when Cc1nc(OCCC(C)(C)O)ccc1Oc1cccc2c1CC[C@H]2Oc1ccc(-c2cc(O)n[s+]2[O-])cc1 (stereo partly drawn) [Example 101, 3-hydroxy-5-(4-(((R)-4-((6-(3-hydroxy-3-methylbutoxy)-2-methylpyridin-3-yl)oxy)-2,3-dihydro-1H-inden-1-yl)oxy)phenyl)isothiazole 1-oxide] was run?
A: The EC50 was < 300 nM.

Q: For CCOCCOc1ccc(Oc2cccc3c2CC[C@H]3Oc2ccc(-c3cc(O)n[s+]3[O-])cc2)c(C)n1 (stereo partly drawn) [Example 102, 5-(4-(((R)-4-((6-(2-ethoxyethoxy)-2-methylpyridin-3-yl)oxy)-2,3-dihydro-1H-inden-1-yl)oxy)phenyl)-3-hydroxyisothiazole 1-oxide], which EC50 is on record?
A: The EC50 was < 300 nM.

Q: How did the EC50 turn out when [O-][s+]1nc(O)cc1-c1ccc(O[C@@H]2CCc3c(Oc4ccc(OC(F)(F)F)cc4)cccc32)cc1 (stereo partly drawn) [Example 103, 3-hydroxy-5-(4-(((R)-4-(4-(trifluoromethoxy)phenoxy)-2,3-dihydro-1H-inden-1-yl)oxy)phenyl)isothiazole 1-oxide] was run?
A: The EC50 was < 300 nM.

Q: Which EC50 does the source give for [O-][s+]1nc(O)cc1-c1ccc(O[C@@H]2CCc3c(Oc4cnc5ccccc5c4)cccc32)cc1 (stereo partly drawn) [Example 104, 3-hydroxy-5-(4-(((R)-4-(quinolin-3-yloxy)-2,3-dihydro-1H-inden-1-yl)oxy)phenyl)isothiazole 1-oxide] here?
A: The EC50 was < 300 nM.

Q: For COc1cc(C)c(Oc2cccc3c2CC[C@H]3Oc2ccc(-c3cc(O)n[s+]3[O-])cc2)cn1 (stereo partly drawn) [Example 105, 3-hydroxy-5-(4-(((R)-4-((6-methoxy-4-methylpyridin-3-yl)oxy)-2,3-dihydro-1H-inden-1-yl)oxy)phenyl)isothiazole 1-oxide], which EC50 is on record?
A: Its EC50 is < 300 nM.

Q: How did the EC50 turn out when COc1ccc(Oc2cccc3c2CC[C@H]3Oc2ccc(-c3cc(O)n[s+]3[O-])cc2)c(C)n1 (stereo partly drawn) [Example 106, 3-hydroxy-5-(4-(((R)-4-((6-methoxy-2-methylpyridin-3-yl)oxy)-2,3-dihydro-1H-inden-1-yl)oxy)phenyl)isothiazole 1-oxide] was run?
A: The EC50 was < 300 nM.

Q: How did the EC50 turn out when CS(=O)(=O)c1ccc(Oc2cccc3c2CC[C@H]3Oc2ccc(-c3cc(O)n[s+]3[O-])cc2)cc1 (stereo partly drawn) [Example 107, 3-hydroxy-5-(4-(((R)-4-(4-(methylsulfonyl)phenoxy)-2,3-dihydro-1H-inden-1-yl)oxy)phenyl)isothiazole 1-oxide] was run?
A: The EC50 was < 300 nM.

Q: For CCOCCOc1cc(C)c(Oc2cccc3c2CC[C@H]3Oc2ccc(-c3cc(O)n[s+]3[O-])cc2)c(C)c1 (stereo partly drawn) [Example 108, 5-(4-(((R)-4-(4-(2-ethoxyethoxy)-2,6-dimethylphenoxy)-2,3-dihydro-1H-inden-1-yl)oxy)phenyl)-3-hydroxyisothiazole 1-oxide], which EC50 is on record?
A: Its EC50 is < 300 nM.

Q: How did the EC50 turn out when [O-][s+]1nc(O)cc1-c1ccc(O[C@@H]2CCc3c(Oc4ccc(N5CCOCC5)nc4)cccc32)cc1 (stereo partly drawn) [Example 109, 3-hydroxy-5-(4-(((R)-4-((6-morpholinopyridin-3-yl)oxy)-2,3-dihydro-1H-inden-1-yl)oxy)phenyl)isothiazole 1-oxide] was run?
A: The EC50 was < 300 nM.

Q: With COc1ncc(Oc2cccc3c2CC[C@H]3Oc2ccc(-c3cc(O)n[s+]3[O-])cc2)cn1 (stereo partly drawn) [Example 110, 3-hydroxy-5-(4-(((R)-4-((2-methoxypyrimidin-5-yl)oxy)-2,3-dihydro-1H-inden-1-yl)oxy)phenyl)isothiazole 1-oxide] as the compound, how does the EC50 read?
A: The EC50 was < 300 nM.

Q: [O-][s+]1nc(O)cc1-c1ccc(O[C@@H]2CCc3c(Oc4ccsc4)cccc32)cc1 (stereo partly drawn) [Example 111, 3-hydroxy-5-(4-(((R)-4-(thiophen-3-yloxy)-2,3-dihydro-1H-inden-1-yl)oxy)phenyl)isothiazole 1-oxide] was tested. Which EC50 did it give?
A: Its EC50 is < 300 nM.

Q: Which EC50 does the source give for CC(C)(O)CCOc1cccc(Oc2cccc3c2CC[C@H]3Oc2ccc(-c3cc(O)n[s+]3[O-])cc2)c1 (stereo partly drawn) [Example 112, 3-hydroxy-5-(4-(((R)-4-(3-(3-hydroxy-3-methylbutoxy)phenoxy)-2,3-dihydro-1H-inden-1-yl)oxy)phenyl)isothiazole 1-oxide] here?
A: Its EC50 is < 300 nM.

Q: Which EC50 does the source give for CC(C)(O)CCOc1ccc(Oc2cccc3c2CC[C@H]3Oc2ccc(-c3cc(O)n[s+]3[O-])cc2)cc1 (stereo partly drawn) [Example 113, 3-hydroxy-5-(4-(((R)-4-(4-(3-hydroxy-3-methylbutoxy)phenoxy)-2,3-dihydro-1H-inden-1-yl)oxy)phenyl)isothiazole 1-oxide] here?
A: The EC50 was < 300 nM.

Q: How did the EC50 turn out when COc1cc(Oc2cccc3c2CC[C@H]3Oc2ccc(-c3cc(O)n[s+]3[O-])cc2)ccn1 (stereo partly drawn) [Example 114, 3-hydroxy-5-(4-(((R)-4-((2-methoxypyridin-4-yl)oxy)-2,3-dihydro-1H-inden-1-yl)oxy)phenyl)isothiazole 1-oxide] was run?
A: Its EC50 is < 300 nM.

Q: Which EC50 does the source give for CS(=O)(=O)CCCOc1ccc(Oc2cccc3c2CC[C@H]3Oc2ccc(-c3cc(O)n[s+]3[O-])cc2)cc1 (stereo partly drawn) [Example 115, 3-hydroxy-5-(4-(((R)-4-(4-(3-(methylsulfonyl)propoxy)phenoxy)-2,3-dihydro-1H-inden-1-yl)oxy)phenyl)isothiazole 1-oxide] here?
A: Its EC50 is < 300 nM.

Q: For CS(=O)(=O)CCCOc1ccc(Oc2cccc3c2CC[C@H]3Oc2ccc(-c3cc(O)n[s+]3[O-])cc2)cn1 (stereo partly drawn) [Example 116, 3-hydroxy-5-(4-(((R)-4-((6-(3-(methylsulfonyl)propoxy)pyridin-3-yl)oxy)-2,3-dihydro-1H-inden-1-yl)oxy)phenyl)isothiazole 1-oxide], which EC50 is on record?
A: Its EC50 is < 300 nM.

Q: With Cc1nc(OCCCS(C)(=O)=O)ccc1Oc1cccc2c1CC[C@H]2Oc1ccc(-c2cc(O)n[s+]2[O-])cc1 (stereo partly drawn) [Example 117, 3-hydroxy-5-(4-(((R)-4-((2-methyl-6-(3-(methylsulfonyl)propoxy)pyridin-3-yl)oxy)-2,3-dihydro-1H-inden-1-yl)oxy)phenyl)isothiazole 1-oxide] as the compound, how does the EC50 read?
A: The EC50 was < 300 nM.

Q: How did the EC50 turn out when N#Cc1ccc(Oc2cccc3c2CC[C@H]3Oc2ccc(-c3cc(O)n[s+]3[O-])cc2)nc1 (stereo partly drawn) [Example 118, 6-(((1R)-1-(4-(3-hydroxy-1-oxidoisothiazol-5-yl)phenoxy)-2,3-dihydro-1H-inden-4-yl)oxy)nicotinonitrile] was run?
A: The EC50 was < 300 nM.

Q: Which EC50 does the source give for N#Cc1ccc(Oc2cccc3c2CC[C@H]3Oc2ccc(-c3cc(O)n[s+]3[O-])cc2)cn1 (stereo partly drawn) [Example 119, 5-(((1R)-1-(4-(3-hydroxy-1-oxidoisothiazol-5-yl)phenoxy)-2,3-dihydro-1H-inden-4-yl)oxy)picolinonitrile] here?
A: Its EC50 is < 300 nM.

Q: [O-][s+]1nc(O)cc1-c1ccc(OCC2=CC3(CCCCC3)CCC2)cc1 (stereo not drawn) [Example 120, 3-hydroxy-5-(4-(spiro[5.5]undec-1-en-2-ylmethoxy)phenyl)isothiazole 1-oxide] was tested. Which EC50 did it give?
A: Its EC50 is 300 to 3000 nM.

Q: How did the EC50 turn out when Cc1cccc(C)c1N1CCC(COc2ccc(-c3cc(O)n[s+]3[O-])cc2)C1 (stereo not drawn) [Example 121, 5-(4-((1-(2,6-dimethylphenyl)pyrrolidin-3-yl)methoxy)phenyl)-3-hydroxyisothiazole 1-oxide] was run?
A: Its EC50 is 300 to 3000 nM.

Q: [O-][s+]1nc(O)cc1-c1ccc(OCC2=CC3(CCCC3)CCC2)cc1 (stereo not drawn) [Example 122, 3-hydroxy-5-(4-(spiro[4.5]dec-6-en-7-ylmethoxy)phenyl)isothiazole 1-oxide] was tested. Which EC50 did it give?
A: The EC50 was < 300 nM.

Q: For [O-][s+]1nc(O)cc1-c1ccc(OCc2ccc(CN3CCC4(C=Cc5ccccc54)CC3)cc2)cc1 (stereo not drawn) [Example 123, 3-hydroxy-5-(4-((4-(spiro[inden-1,4′-piperidin]-1′-ylmethyl)benzyl)oxy)phenyl)isothiazole 1-oxide], which EC50 is on record?
A: Its EC50 is 300 to 3000 nM.
